Source: patent publication US6358943B1, “N-substituted indolines as estrogenic agents” (American Home Products Corporation, priority 1999, dated 2002)
pIC50: −log10 of the molar value.

Target: T1, estrogen receptor (ER) (Homo sapiens, UniProt P03372)
T1 construct: expressed in transfected cells; host or cells: CHO cells (cytosol)
T1 sequence (P03372 1-595): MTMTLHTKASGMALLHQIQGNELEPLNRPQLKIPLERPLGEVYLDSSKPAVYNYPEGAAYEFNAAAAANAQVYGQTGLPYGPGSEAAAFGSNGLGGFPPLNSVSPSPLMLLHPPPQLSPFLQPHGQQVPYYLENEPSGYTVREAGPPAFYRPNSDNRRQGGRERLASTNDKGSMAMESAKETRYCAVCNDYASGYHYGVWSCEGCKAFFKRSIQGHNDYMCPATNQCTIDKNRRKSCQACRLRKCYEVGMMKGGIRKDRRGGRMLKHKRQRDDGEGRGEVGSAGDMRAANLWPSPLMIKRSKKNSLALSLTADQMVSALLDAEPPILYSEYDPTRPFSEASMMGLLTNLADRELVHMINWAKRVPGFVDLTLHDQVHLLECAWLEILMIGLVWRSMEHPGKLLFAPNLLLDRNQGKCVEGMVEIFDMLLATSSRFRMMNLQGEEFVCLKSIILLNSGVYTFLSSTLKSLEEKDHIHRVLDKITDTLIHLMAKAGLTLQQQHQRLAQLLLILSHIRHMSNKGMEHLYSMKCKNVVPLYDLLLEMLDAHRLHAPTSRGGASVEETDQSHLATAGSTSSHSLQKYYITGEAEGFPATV
Assay: Receptor Binding Assay: competition with [3H]17β-estradiol, cytosol of CHO cells overexpressing the estrogen receptor
Conditions: 0.8 nM [3H]17β-estradiol, 12 competitor concentrations, room temperature 2.5 h, CHO cell cytosol

- pIC50: 6.46
SMILES: CC1(C)c2cc(O)ccc2N(Cc2ccc(OCCN3CCCCCC3)cc2)C1c1ccc(O)cc1 (stereo not shown) [Example No. 11, 1-[4-(2-Azepan-1-yl-ethoxy)-benzyl]-2-(4-hydroxy-phenyl)-3,3-dimethyl-2,3-dihydro-1H-indol-5-ol]
